What was measured:
[1] = tested on: M-Type antigen (SARS coronavirus protein antigen, ProSci); type: binding
[2] = tested on: E-type antigen (SARS coronavirus protein antigen, ProSci); type: binding

Substance | M (mean value) [1] | M-Type Ranking [1] | E Value [2] | E-Type Ranking [2]
Gln-Trp | 0.093 | 8 | 0.166 | 12
Ser-Cys | 0.087 | 12 | 0.149 | 19
Tyr-Trp | 0.063 | 26 | 0.090 | 30
Ile-Met | 0.074 | 18 | 0.139 | 22
Phe-Met | 0.059 | 29 | 0.190 | 8
Cys-Glu | 0.143 | 4 | 0.356 | 3
Trp-Gln | 0.073 | 19 | 0.155 | 15
Lys-Phe | 0.080 | 14 | 0.154 | 16
Tyr-Gln | 0.069 | 25 | 0.122 | 27
Leu-Val | 0.088 | 10 | 0.147 | 21
Val-Ala | 0.077 | 17 | 0.118 | 28
Glu-Ser | 0.111 | 6 | 0.198 | 6
Phe-Tyr | 0.078 | 15 | 0.127 | 26
Ser-Asp | 0.091 | 9 | 0.136 | 23
Phe-Phe | 0.059 | 28 | 0.116 | 29
Trp-Phe | 0.069 | 23 | 0.148 | 20
Phe-Arg | 0.080 | 13 | 0.167 | 11
Asp-Ser | 0.087 | 11 | 0.132 | 25
Phe-Leu | 0.061 | 27 | 0.198 | 6
Arg-Phe | 0.072 | 21 | 0.183 | 9
Phe-Trp | 0.071 | 22 | 0.159 | 14
Ser-Glu | 0.073 | 20 | 0.135 | 24
Ala-Ile | 0.057 | 30 | 0.154 | 17
Cys-Phe | 0.069 | 24 | 0.165 | 13
Asp-Cys | 0.114 | 5 | 0.238 | 5
Val-Met | 0.094 | 7 | 0.151 | 18
Asp-Glu | 0.169 | 2 | 0.520 | 2
Cys-Asp | 0.144 | 3 | 0.326 | 4
Glu-Asp | 0.186 | 1 | 0.552 | 1

From patent US20100304363A1 (E[…] TELECOMM[…] INSTITUTE, priority 2009, published 2010)
